Test results from patent US20240067632A1, “WEE1 Degrading Compounds and Uses Thereof” (Bristol-Myers Squibb Company, priority 2022, published 2024).

How the values were obtained:
WEE1 = biological target: T1, WEE1 (Homo sapiens, UniProt P30291+Q96SW2); assay: WEE1-ePL degradation assay (LentiX-WEE1-ePL-GSPT1-ND cells, InCELL Hunter luminescence, 4 h); assay type: cell-based; conditions: 293T-LentiX WEE1-ePL cells; for 293T-LentiX WEE1-ePL Degradation 4 hr (Ymin): lower limit of the fit (0 = luciferase inhibitor, Ymax = DMSO control); for DC50: read-out: 293T-LentiX WEE1-ePL Degradation 4 hr (EC50)
T1 construct: C-terminal ePL-tagged (DiscoverX, Fremont, CA) full-length WEE1 expression construct; expressed in transfected cells; host or cells: LentiX-HEK293T (Invitrogen), lentiviral transduction; co-expressing GSPT1-GN (G576N, lacking the first 158 amino acids)
Procedure, shortened: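 First, compounds were pre-plated as 10-point, 3-fold dilutions (top 1 uM or 10 uM) with DMSO control; next, WEE1-ePL-expressing HEK293T cells were added and held 4 h at 37 °C; finally, InCELL Hunter reagent was applied for 30 min before luminescence reading. A 4PL fit gave EC50 and Ymin.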

MKN45 cells = assay: MKN45 cell proliferation assay (Cell-Titer-Glo, 120 h); assay type: cell-based; conditions: for EC50: Homo sapiens, MKN-45, 120 h, Cell-Titer-Glo, growth inhibition, read-out: MKN45 Cell Prolif. 120 hr (EC50); for MKN45 Cell Prolif. 120 hr (Ymin-Obs): minimal percent of DMSO control observed in the concentrations tested
Procedure, shortened: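 Cells seeded at 400/well onto pre-printed 10-point half-log dilutions (top 1 or 10 uM, 0.1% DMSO final), in triplicate, and grown 120 h at 37 C. Viability by Cell-Titer-Glo luminescence, blank-subtracted and normalised to DMSO; EC50 from four-parameter logistic fit, with observed minimal % of control recorded as Ymin-obs.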

Structure (SMILES) | 293T-LentiX WEE1-ePL Degradation 4 hr (Ymin) (WEE1) | DC50 (WEE1) [µM] | EC50 (MKN45 cells) [µM] | MKN45 Cell Prolif. 120 hr (Ymin-Obs) (MKN45 cells)
Cc1cccc2ncc(CN3CC[C@H](Oc4ccc5c(c4)CN(C4CCC(=O)NC4=O)C5=O)C3)cc12 (stereo partly drawn) [3-(5-{[(3S)-1-[(5-methylquinolin-3-yl)methyl]pyrrolidin-3-yl]oxy}-1-oxo-2,3-dihydro-1H-isoindol-2-yl)piperidine-2,6-dione] | 26.805 | 0.00531 | 0.037 | 12.09
O=C1CCC(N2Cc3cc(O[C@H]4CCN(Cc5cnc6ccc(F)cc6c5)C4)ccc3C2=O)C(=O)N1 (stereo partly drawn) [3-(5-{[(3S)-1-[(6-fluoroquinolin-3-yl)methyl]pyrrolidin-3-yl]oxy}-1-oxo-2,3-dihydro-1H-isoindol-2-yl)piperidine-2,6-dione] | 30.015 | 0.00919 | 0.0645 | 16.03
CN1CCc2ncc(CN3CC[C@H](Oc4ccc5c(c4)CN(C4CCC(=O)NC4=O)C5=O)C3)cc2C1 (stereo partly drawn) [3-(5-{[(3S)-1-[(6-methyl-5,6,7,8-tetrahydro-1,6-naphthyridin-3-yl)methyl]pyrrolidin-3-yl]oxy}-1-oxo-2,3-dihydro-1H-isoindol-2-yl)piperidine-2,6-dione] | 34 | 0.216 | 5.05 | 33.405
Cc1ccc2ncc(CN3CC[C@H](Oc4ccc5c(c4)CN(C4CCC(=O)NC4=O)C5=O)C3)cc2c1 (stereo partly drawn) [3-(5-{[(3S)-1-[(6-methylquinolin-3-yl)methyl]pyrrolidin-3-yl]oxy}-1-oxo-2,3-dihydro-1H-isoindol-2-yl)piperidine-2,6-dione] | 29.6 | 0.00938 | 0.0336 | 13.08
O=C1CCC(N2Cc3cc(O[C@H]4CCN(Cc5cc6ccc(F)cc6cn5)C4)ccc3C2=O)C(=O)N1 (stereo partly drawn) [3-(5-{[(3S)-1-[(7-fluoroisoquinolin-3-yl)methyl]pyrrolidin-3-yl]oxy}-1-oxo-2,3-dihydro-1H-isoindol-2-yl)piperidine-2,6-dione] | 28.82 | 0.00493 | 0.0248 | 10.88
COc1ccc2cc(CN3CC[C@H](Oc4ccc5c(c4)CN(C4CCC(=O)NC4=O)C5=O)C3)nnc2c1 (stereo partly drawn) [3-(5-{[(3S)-1-[(7-methoxycinnolin-3-yl)methyl]pyrrolidin-3-yl]oxy}-1-oxo-2,3-dihydro-1H-isoindol-2-yl)piperidine-2,6-dione] | 28 | 0.00548 | 0.0124 | 7.52
CN1CCc2cc(CN3CC[C@H](Oc4ccc5c(c4)CN(C4CCC(=O)NC4=O)C5=O)C3)cnc2C1 (stereo partly drawn) [3-(5-{[(3S)-1-[(7-methyl-5,6,7,8-tetrahydro-1,7-naphthyridin-3-yl)methyl]pyrrolidin-3-yl]oxy}-1-oxo-2,3-dihydro-1H-isoindol-2-yl)piperidine-2,6-dione] | 34 | 0.0651 | 0.425 | 11.9
CN1CCc2c(cncc2CN2CC[C@H](Oc3ccc4c(c3)CN(C3CCC(=O)NC3=O)C4=O)C2)C1 (stereo partly drawn) [3-(5-{[(3S)-1-[(7-methyl-5,6,7,8-tetrahydro-2,7-naphthyridin-4-yl)methyl]pyrrolidin-3-yl]oxy}-1-oxo-2,3-dihydro-1H-isoindol-2-yl)piperidine-2,6-dione] | 68 | 0.558 | > 10 | 84.06
Cc1ccc2cc(CN3CC[C@H](Oc4ccc5c(c4)CN(C4CCC(=O)NC4=O)C5=O)C3)ncc2c1 (stereo partly drawn) [3-(5-{[(3S)-1-[(7-methylisoquinolin-3-yl)methyl]pyrrolidin-3-yl]oxy}-1-oxo-2,3-dihydro-1H-isoindol-2-yl)piperidine-2,6-dione] | 32.315 | 0.0122 | 0.0707 | 15.68
Cc1ccc2cc(CN3CC[C@H](Oc4ccc5c(c4)CN(C4CCC(=O)NC4=O)C5=O)C3)cc(F)c2n1 (stereo partly drawn) [3-(5-{[(3S)-1-[(8-fluoro-2-methylquinolin-6-yl)methyl]pyrrolidin-3-yl]oxy}-1-oxo-2,3-dihydro-1H-isoindol-2-yl)piperidine-2,6-dione] | 25.35 | 0.00104 | 0.0032 | 7.555
O=C1CCC(N2Cc3cc(O[C@H]4CCN(Cc5cc6cccc(F)c6cn5)C4)ccc3C2=O)C(=O)N1 (stereo partly drawn) [3-(5-{[(3S)-1-[(8-fluoroisoquinolin-3-yl)methyl]pyrrolidin-3-yl]oxy}-1-oxo-2,3-dihydro-1H-isoindol-2-yl)piperidine-2,6-dione] | 30.295 | 0.00532 | 0.0244 | 10.49
CN1CCCc2cc(CN3CC[C@H](Oc4ccc5c(c4)CN(C4CCC(=O)NC4=O)C5=O)C3)cnc21 (stereo partly drawn) [3-(5-{[(3S)-1-[(8-methyl-5,6,7,8-tetrahydro-1,8-naphthyridin-3-yl)methyl]pyrrolidin-3-yl]oxy}-1-oxo-2,3-dihydro-1H-isoindol-2-yl)piperidine-2,6-dione] | 58 | 0.0191 | > 10 | 79.28
Cc1cccc2cc(CN3CC[C@H](Oc4ccc5c(c4)CN(C4CCC(=O)NC4=O)C5=O)C3)ncc12 (stereo partly drawn) [3-(5-{[(3S)-1-[(8-methylisoquinolin-3-yl)methyl]pyrrolidin-3-yl]oxy}-1-oxo-2,3-dihydro-1H-isoindol-2-yl)piperidine-2,6-dione] | 32.22 | 0.00641 | 0.118 | 19.68
O=C1CCC(N2Cc3cc(O[C@H]4CCN(Cc5cc6ccccc6nn5)C4)ccc3C2=O)C(=O)N1 (stereo partly drawn) [3-(5-{[(3S)-1-[(cinnolin-3-yl)methyl]pyrrolidin-3-yl]oxy}-1-oxo-2,3-dihydro-1H-isoindol-2-yl)piperidine-2,6-dione] | 26.03 | 0.0125 | 0.0663 | 8.97
O=C1CCC(N2Cc3cc(O[C@H]4CCN(Cc5ccc6nnccc6c5)C4)ccc3C2=O)C(=O)N1 (stereo partly drawn) [3-(5-{[(3S)-1-[(cinnolin-6-yl)methyl]pyrrolidin-3-yl]oxy}-1-oxo-2,3-dihydro-1H-isoindol-2-yl)piperidine-2,6-dione] | 26.65 | 0.0125 | 0.0328 | 8.19
O=C1CCC(N2Cc3cc(O[C@H]4CCN(Cc5cc6ccccc6cn5)C4)ccc3C2=O)C(=O)N1 (stereo partly drawn) [3-(5-{[(3S)-1-[(isoquinolin-3-yl)methyl]pyrrolidin-3-yl]oxy}-1-oxo-2,3-dihydro-1H-isoindol-2-yl)piperidine-2,6-dione] | 30.345 | 0.00405 | 0.0441 | 13.47
O=C1CCC(N2Cc3cc(O[C@H]4CCN(Cc5ccc6cnccc6c5)C4)ccc3C2=O)C(=O)N1 (stereo partly drawn) [3-(5-{[(3S)-1-[(isoquinolin-6-yl)methyl]pyrrolidin-3-yl]oxy}-1-oxo-2,3-dihydro-1H-isoindol-2-yl)piperidine-2,6-dione] | 25.71 | 0.017 | 0.0527 | 15.77
O=C1CCC(N2Cc3cc(O[C@H]4CCN(Cc5ccc6ccncc6c5)C4)ccc3C2=O)C(=O)N1 (stereo partly drawn) [3-(5-{[(3S)-1-[(isoquinolin-7-yl)methyl]pyrrolidin-3-yl]oxy}-1-oxo-2,3-dihydro-1H-isoindol-2-yl)piperidine-2,6-dione] | 46 | 0.021 | 0.29 | 54.45
O=C1CCC(N2Cc3cc(O[C@H]4CCN(Cc5ccc6nc(C7(O)CCC7)ccc6c5)C4)ccc3C2=O)C(=O)N1 (stereo partly drawn) [3-(5-{[(3S)-1-{[2-(1-hydroxycyclobutyl)quinolin-6-yl]methyl}pyrrolidin-3-yl]oxy}-1-oxo-2,3-dihydro-1H-isoindol-2-yl)piperidine-2,6-dione] | 29.5 | 0.00258 | 0.0024 | 7.94
COC1(c2ccc3cc(CN4CC[C@H](Oc5ccc6c(c5)CN(C5CCC(=O)NC5=O)C6=O)C4)ccc3n2)CCC1 (stereo partly drawn) [3-(5-{[(3S)-1-{[2-(1-methoxycyclobutyl)quinolin-6-yl]methyl}pyrrolidin-3-yl]oxy}-1-oxo-2,3-dihydro-1H-isoindol-2-yl)piperidine-2,6-dione] | 31 | 0.00269 | 0.00332 | 7.4
CN1CC(c2ccc3cc(CN4CC[C@H](Oc5ccc6c(c5)CN(C5CCC(=O)NC5=O)C6=O)C4)ccc3n2)C1 (stereo partly drawn) [3-(5-{[(3S)-1-{[2-(1-methylazetidin-3-yl)quinolin-6-yl]methyl}pyrrolidin-3-yl]oxy}-1-oxo-2,3-dihydro-1H-isoindol-2-yl)piperidine-2,6-dione] | 32 | 0.1 | 0.0934 | 11.97
